In the CheMixHub viscosity set:

Assay: xn = mol fraction of the nth substance listed

COc1ccc(C=O)cc1 + Cc1ccccc1
viscosity [mPa·s], 101 kPa
Conditions | x1 = 0.0899 | x1 = 0.1818 | x1 = 0.2759 | x1 = 0.3721 | x1 = 0.4706 | x1 = 0.5714 | x1 = 0.6747 | x1 = 0.7805 | x1 = 0.8889
303.15 K | 0.5703 | 0.6449 | 0.7185 | 0.9019 | 1.099 | 1.356 | 1.551 | 2.61 | 2.857
308.15 K | 0.5414 | 0.6128 | 0.6929 | 0.8502 | 1.018 | 1.258 | 1.388 | 2.218 | 2.505
313.15 K | 0.512 | 0.5751 | 0.6448 | 0.7809 | 0.9332 | 1.122 | 1.259 | 2.011 | 2.165
318.15 K | 0.4586 | 0.5216 | 0.5862 | 0.7004 | 0.8327 | 0.9898 | 1.098 | 1.65 | 1.825

COc1ccc(C=O)cc1 + Cc1ccccc1O
308.15 K, 101 kPa
Conditions | viscosity [mPa·s]
x1 = 0.7753 | 3.815
x1 = 0.8859 | 3.475

CCCCCCC(=O)O + ClC(Cl)(Cl)Cl
298.15 K, 101 kPa
Conditions | viscosity [mPa·s]
x1 = 0.06 | 0.99
x1 = 0.12 | 1.08
x1 = 0.17 | 1.175
x1 = 0.23 | 1.271
x1 = 0.44 | 1.767
x1 = 0.54 | 2.046
x1 = 0.64 | 2.362
x1 = 0.83 | 3.015

FC(F)(F)C(F)(F)Cl + FC(F)Cl
Conditions | viscosity [mPa·s]
298.15 K, 101 kPa, x2 = 0.63 | 0.16

Clc1cccc(Cl)c1 + Nc1cccc(Cl)c1
viscosity [mPa·s], 100 kPa
Conditions | x2 = 0.1079 | x2 = 0.2255 | x2 = 0.3102 | x2 = 0.4128 | x2 = 0.5135 | x2 = 0.6122 | x2 = 0.7094 | x2 = 0.8047 | x2 = 0.8908
303.15 K | 1.313 | 1.712 | 1.998 | 2.341 | 2.675 | 2.999 | 3.318 | 3.627 | 3.905
308.15 K | 1.225 | 1.581 | 1.836 | 2.142 | 2.439 | 2.729 | 3.012 | 3.286 | 3.532
313.15 K | 1.141 | 1.455 | 1.678 | 1.946 | 2.208 | 2.462 | 2.708 | 2.946 | 3.162
318.15 K | 1.055 | 1.326 | 1.519 | 1.752 | 1.975 | 2.193 | 2.405 | 2.611 | 2.795

CCOc1ccccc1 + Nc1ccccc1
viscosity [mPa·s], 101 kPa
Conditions | x1 = 0.09206 | x1 = 0.1748 | x1 = 0.2667 | x1 = 0.3716 | x1 = 0.4789 | x1 = 0.5934 | x1 = 0.7132 | x1 = 0.8542
293.35 K | 3.64 | 3.17 | 2.75 | 2.39 | 2.1 | 1.84 | 1.63 | 1.428
302.75 K | 2.7 | 2.38 | 2.115 | 1.87 | 1.67 | 1.495 | 1.335 | 1.169
313.15 K | 2.08 | 1.865 | 1.675 | 1.5 | 1.355 | 1.225 | 1.106 | 0.982

CC(C)(C)N1CCCC1=O + O
298.16 K, 101 kPa
Conditions | viscosity [mPa·s]
x1 = 0.1105 | 3.47
x1 = 0.261 | 4.04
x1 = 0.4035 | 4.76
x1 = 0.5487 | 5.49
x1 = 0.6233 | 5.79
x1 = 0.6749 | 5.86
x1 = 0.7189 | 5.81
x1 = 0.7798 | 5.44
x1 = 0.8652 | 4.22
